“And” between values parts separate entries of the source, which are not always exact repeats. Identical values can stand only once.
Tests used:
FimH-CRD [1] = biological target: T1, FimH-CRD (Escherichia coli, UniProt P08191); assay: Competitive binding assay by fluorescence polarization, assay 2 (compounds prepared by a robotics system, plates frozen and thawed); design: species or system E. coli; details: Assay 2 Kd, 5 nM Alexa 647 mannoside probe, 60 nM FimH-CRD, replicate values in one cell
T1 construct: The first 177 amino acids of the FimH protein are expressed as a fusion protein; thrombin tag (printed as 'fusion protein with thrombin') (cleaved yes); made in house; host or cells: bacteria (pET21b plasmid)
T1 sequence (P08191 22-177): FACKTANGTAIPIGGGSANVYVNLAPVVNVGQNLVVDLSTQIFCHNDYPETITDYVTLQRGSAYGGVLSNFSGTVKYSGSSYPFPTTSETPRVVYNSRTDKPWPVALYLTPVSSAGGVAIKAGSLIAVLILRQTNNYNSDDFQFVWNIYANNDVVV
Procedure: (§1) The first 177 amino acids of the FimH protein are expressed as a fusion protein with thrombin in a pET21b plasmid in bacteria. This FimH protein sequence contains the carbohydrate recognition domain (CRD) and shall be termed FimH-CRD. Following bacterial expression of the protein, the FimH-CRD protein is purified to homogeneity and the thrombin tag removed by protease cleavage. A competitive binding assay by fluorescence polarization is performed using 5 nM of the Alexa 647 mannoside probe and 60 nM of the FimH-CRD. The samples are assayed in a low volume 384 well microtiter plate in a final volume of 20 μl. The final assay buffer conditions are the following, 50 mM Tris-Cl, ph 7.0, 100 mM NaCl, 1 mM EDTA, 5 mM β-mercaptoethanol, 0.05% BSA and 2.5% DMSO. Two assays are performed for FimH, termed assay 1 or assay 2. The assay conditions are the same for both assays except the following: assay 1 has compounds prepared by manual dilution in a serial dilution factor with 12-point dose response while assay 2 has compounds prepared by a robotics system also through a serial dilution factor (12 point dose response) and initially prepared in duplicate in 384 well-Corning polypropylene round bottom plates. The assay 2 plates have compound which is then frozen and must be thawed prior to use. Initially the Alexa 647 probe and the FimH-CRD are added to the assay buffer and then 0.5 μl of test compound (assay 1 or 2) between 0.4 nM to 75 μM final concentration are added (12 point titration with 3-fold serial dilution). Control wells for the Alexa 647 probe are prepared with the same conditions except for the addition of the FimH-CRD protein. Plates are then incubated for 5 hrs at room temperature in the dark and under humid conditions to prevent drying. Plates are read using the SpectraMax Paradigm multi-mode plate reader and the appropriate fluorescent polarization detection cartridge (Alexa-647).
(§2) Alexa 647 mannoside probe is prepared using the similar procedure reported for FAM mannoside (Han, Z. et. al., 2010, J. Med. Chem., 53, 4779) and is described in the scheme below.
(§3) To a blue colored stirred solution of (2S,3S,4S,5S,6R)-2-(4-aminobutoxy)-6-(hydroxymethyl)tetrahydropyran-3,4,5-triol (2.21 mg, 0.009 mmol) and the (2E)-2-[(2E,4E)-5-[3,3-dimethyl-5-sulfonato-1-(3-sulfonatopropyl)indol-1-ium-2-yl]penta-2,4-dienylidene]-3-[6-(2,5-dioxopyrrolidin-1-yl)oxy-6-oxo-hexyl]-3-methyl-1-(3-sulfonatopropyl)indoline-5-sulfonate (Potassium Ion (3)) (4.9 mg, 0.0044 mmol) in DMF (44 μL) is added Et3N (5.4 mg, 7.0 μL, 0.053 mmol) at RT. The solution is stirred at room temperature over night, concentrated, dissolved in water and purified on 12 g C-18 silica gel cartridge on Isolera system using acetonitrile in water (0 to 40%, 10 CV) and followed by lyophilization to afford Alexa 647 mannoside probe (3.3 mg, 34%) as deep blue solid.
(§4) The Kd values of the compounds are determined from dose response curves using twelve concentrations per compound in duplicate. Curves are fitted to data points using Fluorescence Polarization competitive displacement analysis, and Kds are interpolated from the resulting curves using GraphPad Prism software, version […] (GraphPad software Inc., San Diego, Calif., USA).

FimH-CRD [2] = biological target: T1, FimH-CRD; assay: Competitive binding assay by fluorescence polarization, assay 1 (compounds prepared by manual dilution); design: species or system E. coli
Procedure: as §1, §2, §3, §4

[3] = test system: bacterial strain LF82 binding to the glycoprotein BSA-(Mannose)3; assay: Bacterial Binding Assay (BBA); assay type: cell-based, Escherichia coli; details: read-out: Bacterial Binding Assay IC50, LF82/Luciferase strain binding to BSA-(Man)3 coated plates, luminescence
Summary of the method: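 Inhibition of LF82/luciferase E. coli adhesion is read as luminescence after washing off unbound cells. Compound and bacteria (10^7 per well) are co-incubated 40-75 min at room temperature on wells coated with 0.5-2 μg/mL BSA-(Man)3, with BSA-only wells as background; IC50 values derived.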

[4] = Assay 1 Kd, 5 nM Alexa 647 mannoside probe, 60 nM FimH-CRD, replicate values in one cell
[5] = read-out: Assay 1 Kd, 5 nM Alexa 647 mannoside probe, 60 nM FimH-CRD, replicate values in one cell

Row | SMILES | Kd (FimH-CRD [1]) | Kd (FimH-CRD [2]; [4]) | IC50 [3] [µM] | Kd (FimH-CRD [2]; [5]) [µM]
1 | OC[C@H]1O[C@H](c2ccc([C@H]3O[C@H](CO)[C@@H](O)[C@H](O)[C@@H]3O)s2)[C@@H](O)[C@@H](O)[C@@H]1O [Compound 46, ((2R,3S,4S,5S,6S)-2-(Hydroxymethyl)-6-[5-[(2S,3S,4S,5S,6R)-3,4,5-trihydroxy-6-(hydroxymethyl)tetrahydropyran-2-yl]-2-thienyl]tetrahydropyran-3,4,5-triol)] | 0.011 µM and 0.009 µM and 0.016 µM and 0.014 µM | – | – | –
2 | O=C(C[C@H]1O[C@H](CO)[C@@H](O)[C@H](O)[C@@H]1O)NCc1ccc(CNC(=O)C[C@H]2O[C@H](CO)[C@@H](O)[C@H](O)[C@@H]2O)cc1 [Compound 49, (2-[(2R,3S,4R,5S,6R)-3,4,5-Trihydroxy-6-(hydroxymethyl)tetrahydropyran-2-yl]-N-[[4-[[[2-[(2R,3S,4R,5S,6R)-3,4,5-trihydroxy-6-(hydroxymethyl)tetrahydropyran-2-yl]acetyl]amino]methyl]phenyl]methyl]acetamide)] | 0.149 µM and 0.087 µM | – | – | –
3 | OC[C@H]1O[C@H](c2cccc([C@H]3O[C@H](CO)[C@@H](O)[C@H](O)[C@@H]3O)c2)[C@@H](O)[C@@H](O)[C@@H]1O [Compound 2] | – | 0.125 µM and 0.062 µM | 4.95 | –
4 | OC[C@H]1O[C@H](C/C=C/c2ccc(/C=C/C[C@H]3O[C@H](CO)[C@@H](O)[C@H](O)[C@@H]3O)c(F)c2)[C@@H](O)[C@@H](O)[C@@H]1O [Compound 28] | – | < 0.005 µM | 0.77 | < 0.005
5 | Cc1cc(/C=C/C[C@H]2O[C@H](CO)[C@@H](O)[C@H](O)[C@@H]2O)ccc1/C=C/C[C@H]1O[C@H](CO)[C@@H](O)[C@H](O)[C@@H]1O [Compound 27, ((2R,3S,4R,5S,6R)-2-(Hydroxymethyl)-6-[(E)-3-[3-methyl-4-[(E)-3-[(2R,3S,4R,5S,6R)-3,4,5-trihydroxy-6-(hydroxymethyl)tetrahydropyran-2-yl]prop-1-enyl]pheny]allyl]tetrahydropyran-3,4,5-triol)] | – | < 0.005 µM | 0.8 | < 0.005
6 | CC(=O)N[C@@H]1[C@@H](O)[C@H](O)[C@@H](CO)O[C@H]1n1cc([C@H]2O[C@H](CO)[C@@H](O)[C@H](O)[C@@H]2O)nn1 [Compound 45, (N-[(2R,3R,4R,5S,6R)-4,5-Dihydroxy-6-(hydroxymethyl)-2-[4-[(2R,3S,4R,5S,6R)-3,4,5-trihydroxy-6-(hydroxymethyl)tetrahydropyran-2-yl]triazol-1-yl]tetrahydropyran-3-yl]acetamide)] | 0.707 µM and 0.576 µM and 0.558 µM and 0.591 µM | – | – | –
7 | O=C(C[C@H]1O[C@H](CO)[C@@H](O)[C@H](O)[C@@H]1O)Nc1cccc(NC(=O)C[C@H]2O[C@H](CO)[C@@H](O)[C@H](O)[C@@H]2O)c1 [Compound 48, (2-[(2R,3S,4R,5S,6R)-3,4,5-Trihydroxy-6-(hydroxymethyl)tetrahydropyran-2-yl]-N-[3-[[2-[(2R,3S,4R,5S,6R)-3,4,5-trihydroxy-6-(hydroxymethyl)tetrahydropyran-2-yl]acetyl]amino]phenyl]acetamide)] | 0.079 µM and 0.05 µM and 0.063 µM | – | – | –
8 | O=[N+]([O-])c1cc(/C=C/C[C@H]2O[C@H](CO)[C@@H](O)[C@H](O)[C@@H]2O)ccc1/C=C/C[C@H]1O[C@H](CO)[C@@H](O)[C@H](O)[C@@H]1O [Compound 32, ((2R,3S,4R,5S,6R)-2-(Hydroxymethyl)-6-[(E)-3-[3-nitro-4-[(E)-3-[(2R,3S,4R,5S,6R)-3,4,5-trihydroxy-6-(hydroxymethyl)tetrahydropyran-2-yl]prop-1-enyl]phenyl]allyl]tetrahydropyran-3,4,5-triol)] | – | < 0.005 µM | 0.34 | < 0.005
9 | OC[C@H]1O[C@H](C/C=C/c2ccc(/C=C/C[C@H]3O[C@H](CO)[C@@H](O)[C@H](O)[C@@H]3O)c(Cl)c2)[C@@H](O)[C@@H](O)[C@@H]1O [Compound 29, ((2R,3S,4R,5S,6R)-2-[(E)-3-[3-Chloro-4-[(E)-3-[(2R,3S,4R,5S,6R)-3,4,5-trihydroxy-6-(hydroxymethyl)tetrahydropyran-2-yl]prop-1-enyl]phenyl]allyl]-6-(hydroxymethyl)tetrahydropyran-3,4,5-triol)] | – | 0.006 µM and 0.008 µM | 1.3 | –

— patent publication US11634447B2 (priority 2012, dated 2023)
